Measurements taken from patent publication US20050112696A1, “Compositions, methods and assays related to secretase cleavage specificity” (The University of Texas Southwestern Medical Center, priority 2003, published 2005).
Entries after “also recorded” stand apart in the source; their conditions may differ.

B1: F-spondin: secreted multi-domain protein that promotes neural cell adhesion and neurite extension; extracellular ligand of APP (protein, UniProt Q9HCB6 29-807, looked up)
Spondin-1: FSDETLDKVPKSEGYCSRILRAQGTRREGYTEFSLRVEGDPDFYKPGTSYRVTLSAAPPSYFRGFTLIALRENREGDKEEDHAGTFQIIDEEETQFMSNCPVAVTESTPRRRTRIQVFWIAPPAGTGCVILKASIVQKRIIYFQDEGSLTKKLCEQDSTFDGVTDKPILDCCACGTAKYRLTFYGNWSEKTHPKDYPRRANHWSAIIGGSHSKNYVLWEYGGYASEGVKQVAELGSPVKMEEEIRQQSDEVLTVIKAKAQWPAWQPLNVRAAPSAEFSVDRTRHLMSFLTMMGPSPDWNVGLSAEDLCTKECGWVQKVVQDLIPWDAGTDSGVTYESPNKPTIPQEKIRPLTSLDHPQSPFYDPEGGSITQVARVVIERIARKGEQCNIVPDNVDDIVADLAPEEKDEDDTPETCIYSNWSPWSACSSSTCDKGKRMRQRMLKAQLDLSVPCPDTQDFQPCMGPGCSDEDGSTCTMSEWITWSPCSISCGMGMRSRERYVKQFPEDGSVCTLPTEETEKCTVNEECSPSSCLMTEWGEWDECSATCGMGMKKRHRMIKMNPADGSMCKAETSQAEKCMMPECHTIPCLLSPWSEWSDCSVTCGKGMRTRQRMLKSLAELGDCNEDLEQVEKCMLPECPIDCELTEWSQWSECNKSCGKGHVIRTRMIQMEPQFGGAPCPETVQRKKCRIRKCLRNPSIQKLRWREARESRRSEQLKEESEGEQFPGCRMRPWTAWSECTKLCGGGIQERYMTVKKRFKSSQFTSCKDKKEIRACNVHPC

Assays:
[1] = test system: Ga14-Tip60 dependent transcription mediated by APP (γ-secretase cleavage); assay: Ga14-Tip60 transactivation assay, cells co-transfected with APP and Fe65; assay type: cell-based; conditions: HEK293 cells; DAPT 2 and 10 μM; inhibition was incomplete; FIG. 2C
Description: (§1) HEK293, HeLa and COS7 cells were transfected at 50 to 80% confluency in 6-well plates using Fugene6 reagent (Roche). For Ga14-Tip60 transactivation assays, HEK293 cells were co-transfected with five plasmids: (1) pG5E1B-luc=0.15 μg; (2) pCMV-LacZ=0.10 μg; (3) pM-Tip60=0.5 μg; (4) pCMV-FE65=0.5 μg; and (5) 0.05-1.0 μg pCMV-APP, 0.025-0.5 μg pCMV-Sport6-APLP1, or 0.05-1.0 μg pcDNA3.1-APLP2 as indicated. For the Fe65 titration experiments, HEK293 cells were cotransfected with five plasmids: (1) pG5E1B-luc=0.15 μg; (2) pCMV-LacZ=0.10 μg; (3) pM-Tip60=0.5 μg; (4) 0.5 μg of APP, 0.25 μg of APLP1, or 0.5 μg of APLP2; and (5) 0-2.0 μg pCMV-Fe65. Cells were harvested 2 days after transfection in 0.25 ml/well of reporter lysis buffer (Promega), and their Luciferase and β-galctosidase activities were determined with the Promega luciferase assay kit using a chemiluminescence reader from Berthold, and with the O-nitrophenyl-D-galacto-pyranoside assay for β-galactosidase, respectively. […]
(§2) For all three proteins (APP, APLP1, and APLP2), a bell-shaped dose-response curve of transactivation that depended on APP or an APLP was observed (FIG. 2A). […] Again, a dose-dependent, highly specific transactivation of Ga14-dependent transcription was detected. […]

[2] = test system: Ga14-Tip60 dependent transcription mediated by APLP1 (γ-secretase cleavage); assay: Ga14-Tip60 transactivation assay, cells co-transfected with APLP1 and Fe65; assay type: cell-based; conditions: HEK293 cells; DAPT 2 and 10 μM; inhibition was incomplete; FIG. 2C
Description: as §1, §2

[3] = test system: Ga14-Tip60 dependent transcription mediated by APLP2 (γ-secretase cleavage); assay: Ga14-Tip60 transactivation assay, cells co-transfected with APLP2 and Fe65; assay type: cell-based; conditions: HEK293 cells; DAPT 2 and 10 μM; inhibition was incomplete; FIG. 2C
Description: as §1, §2

γ-secretase = assay: Immunoblotting of C-terminal fragments (CTFs) in transfected HEK293 cells; assay type: cell-based
Description: HEK293, HeLa and COS7 cells were transfected at 50 to 80% confluency in 6-well plates using Fugene6 reagent (Roche). For Ga14-Tip60 transactivation assays, HEK293 cells were co-transfected with five plasmids: (1) pG5E1B-luc=0.15 μg; (2) pCMV-LacZ=0.10 μg; (3) pM-Tip60=0.5 μg; (4) pCMV-FE65=0.5 μg; and (5) 0.05-1.0 μg pCMV-APP, 0.025-0.5 μg pCMV-Sport6-APLP1, or 0.05-1.0 μg pcDNA3.1-APLP2 as indicated. For the Fe65 titration experiments, HEK293 cells were cotransfected with five plasmids: (1) pG5E1B-luc=0.15 μg; (2) pCMV-LacZ=0.10 μg; (3) pM-Tip60=0.5 μg; (4) 0.5 μg of APP, 0.25 μg of APLP1, or 0.5 μg of APLP2; and (5) 0-2.0 μg pCMV-Fe65. Cells were harvested 2 days after transfection in 0.25 ml/well of reporter lysis buffer (Promega), and their Luciferase and β-galctosidase activities were determined with the Promega luciferase assay kit using a chemiluminescence reader from Berthold, and with the O-nitrophenyl-D-galacto-pyranoside assay for β-galactosidase, respectively. The luciferase activity was standardized by the β-galactosidase activity to control for transfection efficiency and further normalized with the transactivation level with cells expressing no APPs or Fe65. Values shown are averages of transactivation assays performed in triplates. For immunoblotting analyses, HEK293 were transfected with 1 μg expression plasmids encoding APP, APLP1, APLP2, SynCam, or neurexin 1β, with or without 0.25 μg of BACE 1 expression vector. For APLP1 cleavage experiments, 1 μg of APLP1 or APP was cotransfected with BACE (0.25 μg and 0.5 μg) or ADAM 9 (0.5 μg and 1.0 μg) in HEK293, HeLa and COS cells. The cell extracts or media were harvested 24 hours after the transfection. Where indicated, γ-secretase inhibitor IX (DAPT; Calbiochem) was added (2 μM final concentration) 6 hrs before harvesting the cells.
SDS-PAGE and Immunoblotting experiments were performed using standard procedures well know to one of ordinary skill in the are with either regular SDS gels or tricine gels. Lanes were loaded with ˜20 μg of protein from whole cell extracts harvested in sample buffer, and analysed by immunoblotting after SDS-PAGE using antibody dilutions of 1:1,000-2,000 for primary and 1:10,000 HRP conjugated goat-anti-rabbit secondary antibodies (ICN). For immunoblotting analysis of secreted proteins, supernatants from transfected cells (30 μl with approximately 5 μg protein) were loaded per lane.
In the next set of experiments these antibodies were employed to probe for APP, APLP1, and APLP2 cleavage in cells that either expressed these proteins alone or in combination with BACE 1 (FIG. 4). As negative controls, two other neuronal cell-surface proteins, […] (Nrx1β) and SynCAM (36,37,39) were examined. For each of the five proteins studied, six conditions were investigated: HEK293 control cells (lane 1), transfected cells only expressing BACE 1 (lane 2), or cells transfected either with APP, APLP1, APLP2, neurexin 1β (Nrx1β), or SynCAM alone (lanes 3 and 5) or together with BACE 1 (lanes 4 and 6) were incubated in the absence (lanes 1-4) or presence of the γ-secretase inhibitor DAPT ([…]; lanes 5-6). Transfected proteins (indicated on the right) were examined by immunoblotting (20 μg cell protein/lane) using regular SDS-PAGE (top panel for each protein) to monitor the full-length proteins (FL), or by tricine gel electrophoresis to detect their CTFs (bottom panel for each protein). […]

[4] = test system: central APP domain (CAD) of APP, APLP1 and APLP2; assay: F-spondin binding to the central APP domain (CAD); conditions: extracellular ligand; reelin domain or reelin and spondin domains sufficient
[5] = molecular target: β-secretase cleavage sites of APP (Homo sapiens, UniProt P05067); assay: Effect of F-spondin binding on β-secretase cleavage of APP
β-secretase cleavage sites of APP, sequence (P05067 18-770): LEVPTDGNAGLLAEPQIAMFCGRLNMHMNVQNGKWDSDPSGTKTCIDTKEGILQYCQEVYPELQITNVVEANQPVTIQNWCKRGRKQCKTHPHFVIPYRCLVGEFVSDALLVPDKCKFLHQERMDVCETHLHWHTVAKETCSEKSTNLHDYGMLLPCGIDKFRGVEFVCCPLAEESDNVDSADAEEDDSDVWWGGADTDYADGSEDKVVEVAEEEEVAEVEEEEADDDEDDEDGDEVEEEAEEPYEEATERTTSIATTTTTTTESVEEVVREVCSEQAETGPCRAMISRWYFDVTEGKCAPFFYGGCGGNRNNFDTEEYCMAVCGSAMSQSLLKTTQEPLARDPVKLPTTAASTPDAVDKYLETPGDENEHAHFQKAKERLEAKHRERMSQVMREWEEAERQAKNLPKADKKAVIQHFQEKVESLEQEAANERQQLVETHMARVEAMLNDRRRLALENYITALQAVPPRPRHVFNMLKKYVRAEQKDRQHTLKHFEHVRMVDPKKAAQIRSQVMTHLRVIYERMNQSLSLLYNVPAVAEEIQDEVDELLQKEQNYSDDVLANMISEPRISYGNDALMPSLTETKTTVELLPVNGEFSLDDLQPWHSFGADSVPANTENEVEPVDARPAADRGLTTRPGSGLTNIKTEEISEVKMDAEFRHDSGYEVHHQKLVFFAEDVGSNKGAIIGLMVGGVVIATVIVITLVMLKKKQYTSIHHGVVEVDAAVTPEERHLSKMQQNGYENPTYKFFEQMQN

Row | Molecule | inhibition of transactivation mediated by APP [1] | inhibition of transactivation mediated by APLP1 [2] | inhibition of transactivation mediated by APLP2 [3] | CTFs of APLP1 upon DAPT treatment (γ-secretase; HEK293 cells transfected with APLP1, with or without BACE 1, DAPT (2 mM [sic]), FIG. 4) | CTFs of APLP2 upon DAPT treatment (γ-secretase; HEK293 cells transfected with APLP2, with or without BACE 1, DAPT (2 mM [sic]), FIG. 4) | CTFs of APP upon DAPT treatment (γ-secretase; HEK293 cells transfected with APP, with or without BACE 1, DAPT added 6 hrs before harvesting, tricine gel immunoblot) | CTFs of neurexin 1β/APP hybrid upon DAPT treatment (γ-secretase; HEK293 cells transfected with Nrx1β/APP hybrid, with or without BACE 1, FIG. 6B) | CTFs of neurexin 1β upon DAPT treatment (γ-secretase; HEK293 cells transfected with neurexin 1β, DAPT (2 mM [sic]), said to be most likely an artifact, FIG. 4) | binding to the central APP domain (CAD) of APP, APLP1 and APLP2 [4] | effect of binding on cleavage at the β-secretase cleavage sites [5]
1 | C[C@H](NC(=O)Cc1cc(F)cc(F)c1)C(=O)N[C@H](C(=O)OC(C)(C)C)c1ccccc1 [DAPT] | Significant inhibition | Significant inhibition | Significant inhibition | very abundant | very abundant | very abundant; also recorded: massive accumulation of CTFs | massive accumulation of CTFs | CTFs were also observed |  | 
2 | B1 |  |  |  |  |  |  |  |  | binds | inhibits the cleavage
